Test results from the kinase profiling compilation of Christmann-Franck et al. (2016).

Experiments:
Test in all cases: KINOMEscan competition binding
Conditions in all cases: compound 10.0 µM
[1] = target: EPHA4 (human) (UniProt P54764)
[2] = target: AKT1 (human) (UniProt P31749)
[3] = target: MAP3K3 (human) (UniProt Q99759)
[4] = target: CDK14 (human) (UniProt O94921)
[5] = target: CAMKK2 (human) (UniProt Q96RR4)
[6] = target: EPHA2 (human) (UniProt P29317)
[7] = target: MAPK11 (human) (UniProt Q15759)
[8] = target: ACVR1 (human) (UniProt Q04771)
[9] = target: ITK (human) (UniProt Q08881)
[10] = target: CLK3 (human) (UniProt P49761)
[11] = target: DYRK1A (human) (UniProt Q13627)
[12] = target: HCK (human) (UniProt P08631)
[13] = target: GRK1 (human) (UniProt Q15835)
[14] = target: HIPK2 (human) (UniProt Q9H2X6)
[15] = target: PIM1 (human) (UniProt P11309)
[16] = target: MAP4K5 (human) (UniProt Q9Y4K4)
[17] = target: LTK (human) (UniProt P29376)
[18] = target: PRKCD (human) (UniProt Q05655)
[19] = target: TRPM6 (human) (UniProt Q9BX84)
[20] = target: CSNK1G2 (human) (UniProt P78368)
[21] = target: CLK2 (human) (UniProt P49760)
[22] = target: MARK4 (human) (UniProt Q96L34)
[23] = target: AXL (human) (UniProt P30530)
[24] = target: MATK (human) (UniProt P42679)
[25] = target: MAP3K2 (human) (UniProt Q9Y2U5)
[26] = target: MAST1 (human) (UniProt Q9Y2H9)
[27] = target: PIK3CB (human) (UniProt P42338)
[28] = target: EPHB3 (human) (UniProt P54753)
[29] = target: MARK1 (human) (UniProt Q9P0L2)
[30] = target: CDK11B (human) (UniProt P21127)
[31] = target: MYLK4 (human) (UniProt Q86YV6)
[32] = target: CAMK4 (human) (UniProt Q16566)
[33] = target: NUAK2 (human) (UniProt Q9H093)
[34] = target: PTK2 (human) (UniProt Q05397)
[35] = target: CSNK1E (human) (UniProt P49674)
[36] = target: MAP3K11 (human) (UniProt Q16584)
[37] = target: STK36 (human) (UniProt Q9NRP7)
[38] = target: ERBB2 (human) (UniProt P04626)
[39] = target: ACVRL1 (human) (UniProt P37023)
[40] = target: STK32C (human) (UniProt Q86UX6)

Chain of MAP3K3 (human) (Q99759 whole entry, looked up): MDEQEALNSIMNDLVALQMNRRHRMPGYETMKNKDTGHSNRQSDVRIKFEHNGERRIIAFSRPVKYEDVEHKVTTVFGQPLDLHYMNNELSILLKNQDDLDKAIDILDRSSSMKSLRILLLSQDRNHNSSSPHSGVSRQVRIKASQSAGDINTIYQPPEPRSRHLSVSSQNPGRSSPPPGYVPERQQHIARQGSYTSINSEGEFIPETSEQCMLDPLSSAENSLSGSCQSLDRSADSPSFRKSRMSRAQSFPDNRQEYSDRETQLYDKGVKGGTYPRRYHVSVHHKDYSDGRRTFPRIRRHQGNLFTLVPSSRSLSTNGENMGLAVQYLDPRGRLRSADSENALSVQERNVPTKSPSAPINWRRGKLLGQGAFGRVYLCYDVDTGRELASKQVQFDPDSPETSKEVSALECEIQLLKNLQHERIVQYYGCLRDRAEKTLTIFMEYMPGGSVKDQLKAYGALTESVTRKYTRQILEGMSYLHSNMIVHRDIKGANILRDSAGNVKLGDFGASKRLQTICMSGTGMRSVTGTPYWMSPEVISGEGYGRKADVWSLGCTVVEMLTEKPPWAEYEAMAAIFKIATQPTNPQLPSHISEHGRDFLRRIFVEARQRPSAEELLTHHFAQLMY
Chain of CDK14 (human) (O94921 whole entry, looked up): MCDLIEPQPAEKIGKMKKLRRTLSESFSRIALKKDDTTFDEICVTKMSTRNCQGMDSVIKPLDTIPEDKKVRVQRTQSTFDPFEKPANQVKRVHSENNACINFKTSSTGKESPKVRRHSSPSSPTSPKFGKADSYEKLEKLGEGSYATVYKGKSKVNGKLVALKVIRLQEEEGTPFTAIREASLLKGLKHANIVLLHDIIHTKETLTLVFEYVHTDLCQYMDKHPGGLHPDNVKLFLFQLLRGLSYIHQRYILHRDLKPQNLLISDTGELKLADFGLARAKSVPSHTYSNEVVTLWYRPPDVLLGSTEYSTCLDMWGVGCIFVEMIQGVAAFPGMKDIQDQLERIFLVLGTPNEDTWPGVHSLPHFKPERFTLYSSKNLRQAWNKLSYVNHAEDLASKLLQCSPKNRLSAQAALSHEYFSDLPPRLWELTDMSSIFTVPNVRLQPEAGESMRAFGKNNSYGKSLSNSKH
Chain of PIK3CB (human) (P42338 whole entry, looked up): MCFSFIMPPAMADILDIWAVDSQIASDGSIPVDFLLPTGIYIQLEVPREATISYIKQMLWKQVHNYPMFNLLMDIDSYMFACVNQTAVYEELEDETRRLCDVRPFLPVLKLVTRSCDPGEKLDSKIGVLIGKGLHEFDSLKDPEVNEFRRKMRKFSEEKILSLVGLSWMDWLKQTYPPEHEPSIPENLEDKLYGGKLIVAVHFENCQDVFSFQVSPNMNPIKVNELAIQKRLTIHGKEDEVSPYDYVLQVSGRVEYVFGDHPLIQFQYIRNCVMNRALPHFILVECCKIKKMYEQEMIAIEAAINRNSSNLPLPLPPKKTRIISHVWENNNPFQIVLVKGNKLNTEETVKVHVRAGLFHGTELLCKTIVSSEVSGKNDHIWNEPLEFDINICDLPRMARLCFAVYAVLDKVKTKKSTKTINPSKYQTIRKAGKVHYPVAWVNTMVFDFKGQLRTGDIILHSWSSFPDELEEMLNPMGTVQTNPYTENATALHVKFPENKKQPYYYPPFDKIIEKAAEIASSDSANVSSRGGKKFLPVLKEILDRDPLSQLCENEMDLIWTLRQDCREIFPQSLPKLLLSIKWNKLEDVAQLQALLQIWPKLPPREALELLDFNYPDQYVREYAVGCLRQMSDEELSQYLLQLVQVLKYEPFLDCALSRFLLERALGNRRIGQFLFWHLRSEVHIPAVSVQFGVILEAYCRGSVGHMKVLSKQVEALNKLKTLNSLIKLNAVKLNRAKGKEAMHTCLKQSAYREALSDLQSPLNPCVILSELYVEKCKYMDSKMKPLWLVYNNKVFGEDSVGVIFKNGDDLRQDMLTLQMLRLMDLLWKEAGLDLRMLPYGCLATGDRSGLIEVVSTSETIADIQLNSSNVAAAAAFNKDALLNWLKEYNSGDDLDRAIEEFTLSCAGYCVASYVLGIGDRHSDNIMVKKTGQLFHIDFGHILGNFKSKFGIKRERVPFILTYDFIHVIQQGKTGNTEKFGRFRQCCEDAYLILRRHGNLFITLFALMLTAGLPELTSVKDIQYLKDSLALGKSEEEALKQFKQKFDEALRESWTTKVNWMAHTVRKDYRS
Chain of MARK4 (human) (Q96L34 whole entry, looked up): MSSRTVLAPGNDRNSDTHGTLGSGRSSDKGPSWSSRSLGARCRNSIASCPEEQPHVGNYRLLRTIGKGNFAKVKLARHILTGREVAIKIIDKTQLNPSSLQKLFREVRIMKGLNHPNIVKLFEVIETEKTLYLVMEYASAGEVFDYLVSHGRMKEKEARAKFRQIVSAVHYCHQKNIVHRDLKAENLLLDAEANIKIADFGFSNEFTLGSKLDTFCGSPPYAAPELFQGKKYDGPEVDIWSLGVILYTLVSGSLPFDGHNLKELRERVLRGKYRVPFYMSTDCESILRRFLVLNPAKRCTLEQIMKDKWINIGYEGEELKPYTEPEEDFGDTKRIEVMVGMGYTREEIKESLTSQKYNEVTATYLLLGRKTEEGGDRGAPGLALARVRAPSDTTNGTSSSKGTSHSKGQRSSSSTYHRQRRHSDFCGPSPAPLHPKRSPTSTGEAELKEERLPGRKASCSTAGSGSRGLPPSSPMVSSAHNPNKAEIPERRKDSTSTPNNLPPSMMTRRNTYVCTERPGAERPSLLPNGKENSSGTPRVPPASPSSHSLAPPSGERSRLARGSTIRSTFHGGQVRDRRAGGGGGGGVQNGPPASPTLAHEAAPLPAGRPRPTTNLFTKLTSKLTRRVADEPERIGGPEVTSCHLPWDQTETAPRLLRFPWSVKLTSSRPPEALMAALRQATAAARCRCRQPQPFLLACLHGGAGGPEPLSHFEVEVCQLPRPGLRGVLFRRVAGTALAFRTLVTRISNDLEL
Chain of ERBB2 (human) (P04626 whole entry, looked up): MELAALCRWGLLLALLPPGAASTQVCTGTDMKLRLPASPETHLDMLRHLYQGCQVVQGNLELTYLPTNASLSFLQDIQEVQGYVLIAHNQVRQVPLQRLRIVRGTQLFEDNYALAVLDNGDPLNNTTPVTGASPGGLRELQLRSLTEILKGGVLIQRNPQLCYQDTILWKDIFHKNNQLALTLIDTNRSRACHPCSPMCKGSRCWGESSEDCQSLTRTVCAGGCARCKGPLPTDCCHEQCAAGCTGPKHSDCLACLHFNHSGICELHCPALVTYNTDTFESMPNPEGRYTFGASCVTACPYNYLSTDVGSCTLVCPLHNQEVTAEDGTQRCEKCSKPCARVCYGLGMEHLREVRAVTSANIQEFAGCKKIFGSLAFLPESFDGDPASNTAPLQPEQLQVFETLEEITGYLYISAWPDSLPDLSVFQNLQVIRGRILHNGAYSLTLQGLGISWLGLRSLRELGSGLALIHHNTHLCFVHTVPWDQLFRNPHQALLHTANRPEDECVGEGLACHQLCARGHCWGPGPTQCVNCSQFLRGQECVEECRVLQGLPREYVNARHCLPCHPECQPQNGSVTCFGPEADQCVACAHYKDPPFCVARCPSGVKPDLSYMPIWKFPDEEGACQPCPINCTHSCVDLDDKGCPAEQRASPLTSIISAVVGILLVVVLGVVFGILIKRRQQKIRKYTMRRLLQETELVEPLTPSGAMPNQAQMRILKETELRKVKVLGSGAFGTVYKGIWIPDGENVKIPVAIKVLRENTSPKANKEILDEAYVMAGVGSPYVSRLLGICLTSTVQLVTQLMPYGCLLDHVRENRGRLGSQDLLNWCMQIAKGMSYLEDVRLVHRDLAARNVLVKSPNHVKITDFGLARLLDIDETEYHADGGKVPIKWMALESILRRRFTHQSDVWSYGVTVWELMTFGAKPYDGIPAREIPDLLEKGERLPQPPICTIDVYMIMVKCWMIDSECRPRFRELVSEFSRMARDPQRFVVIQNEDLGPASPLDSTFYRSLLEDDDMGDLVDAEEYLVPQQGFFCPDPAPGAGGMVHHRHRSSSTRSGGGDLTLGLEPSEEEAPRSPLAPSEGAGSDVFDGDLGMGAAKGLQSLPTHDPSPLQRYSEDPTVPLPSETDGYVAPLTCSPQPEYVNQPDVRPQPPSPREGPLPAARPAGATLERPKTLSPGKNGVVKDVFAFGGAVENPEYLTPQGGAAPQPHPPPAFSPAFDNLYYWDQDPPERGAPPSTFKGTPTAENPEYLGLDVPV
Chain of MAPK11 (human) (Q15759 whole entry, looked up): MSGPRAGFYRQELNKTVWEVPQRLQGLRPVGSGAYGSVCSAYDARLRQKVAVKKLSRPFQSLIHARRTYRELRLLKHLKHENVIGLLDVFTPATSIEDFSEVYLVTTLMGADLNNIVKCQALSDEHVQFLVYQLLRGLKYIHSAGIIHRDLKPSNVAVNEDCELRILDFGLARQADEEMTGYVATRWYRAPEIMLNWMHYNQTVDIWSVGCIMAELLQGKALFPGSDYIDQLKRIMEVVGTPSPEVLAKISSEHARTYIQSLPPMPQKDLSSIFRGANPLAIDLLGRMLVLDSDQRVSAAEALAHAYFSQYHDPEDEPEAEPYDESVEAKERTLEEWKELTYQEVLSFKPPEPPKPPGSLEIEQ
Chain of CSNK1G2 (human) (P78368 whole entry, looked up): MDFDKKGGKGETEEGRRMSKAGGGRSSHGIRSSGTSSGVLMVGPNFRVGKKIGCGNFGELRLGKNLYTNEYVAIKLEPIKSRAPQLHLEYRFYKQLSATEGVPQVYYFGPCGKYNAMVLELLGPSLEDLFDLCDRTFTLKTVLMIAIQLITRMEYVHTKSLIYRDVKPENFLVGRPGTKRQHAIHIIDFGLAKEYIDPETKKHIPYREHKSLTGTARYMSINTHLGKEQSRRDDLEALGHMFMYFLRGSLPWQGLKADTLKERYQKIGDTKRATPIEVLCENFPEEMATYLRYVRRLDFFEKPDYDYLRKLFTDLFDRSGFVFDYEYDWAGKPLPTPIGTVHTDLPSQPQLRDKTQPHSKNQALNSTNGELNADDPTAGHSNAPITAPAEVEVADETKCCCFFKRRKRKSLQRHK

## C=CC(=O)Nc1ccc(C(=O)c2sc(Nc3ccc(N4CCN(C)CC4)cc3OC)nc2N)cc1
[1]
  kinase still bound, per cent of control: 96%
[2]
  kinase still bound, per cent of control: 100%
[3]
  kinase still bound, per cent of control: 65%
[4]
  kinase still bound, per cent of control: 82%
[5]
  kinase still bound, per cent of control: 5%
[6]
  kinase still bound, per cent of control: 96%
[7]
  kinase still bound, per cent of control: 4.1%
[8]
  kinase still bound, per cent of control: 100%
[9]
  kinase still bound, per cent of control: 74%
[10]
  kinase still bound, per cent of control: 8.9%
[11]
  kinase still bound, per cent of control: 0.15%
[12]
  kinase still bound, per cent of control: 100%
[13]
  kinase still bound, per cent of control: 100%
[14]
  kinase still bound, per cent of control: 40%
[15]
  kinase still bound, per cent of control: 90%
[16]
  kinase still bound, per cent of control: 87%
[17]
  kinase still bound, per cent of control: 5.6%
[18]
  kinase still bound, per cent of control: 100%
[19]
  kinase still bound, per cent of control: 35%
[20]
  kinase still bound, per cent of control: 25%
[21]
  kinase still bound, per cent of control: 0%
[22]
  kinase still bound, per cent of control: 85%
[23]
  kinase still bound, per cent of control: 100%
[24]
  kinase still bound, per cent of control: 25%
[25]
  kinase still bound, per cent of control: 68%
[26]
  kinase still bound, per cent of control: 0%
[27]
  kinase still bound, per cent of control: 86%
[28]
  kinase still bound, per cent of control: 76%
[29]
  kinase still bound, per cent of control: 93%
[30]
  kinase still bound, per cent of control: 89%
[31]
  kinase still bound, per cent of control: 66%
[32]
  kinase still bound, per cent of control: 100%
[33]
  kinase still bound, per cent of control: 49%
[34]
  kinase still bound, per cent of control: 51%
[35]
  kinase still bound, per cent of control: 66%
[36]
  kinase still bound, per cent of control: 100%
[37]
  kinase still bound, per cent of control: 90%
[38]
  kinase still bound, per cent of control: 77%
[39]
  kinase still bound, per cent of control: 100%
[40]
  kinase still bound, per cent of control: 84%

## CNC(=O)Nc1ccc(-c2nc(N3CC4CCC(C3)O4)c3cnn(C4CCC5(CC4)OCCO5)c3n2)cc1
[1]
  kinase still bound, per cent of control: 100%
[2]
  kinase still bound, per cent of control: 81%
[3]
  kinase still bound, per cent of control: 100%
[4]
  kinase still bound, per cent of control: 94%
[5]
  kinase still bound, per cent of control: 100%
[6]
  kinase still bound, per cent of control: 81%
[7]
  kinase still bound, per cent of control: 100%
[8]
  kinase still bound, per cent of control: 90%
[9]
  kinase still bound, per cent of control: 88%
[10]
  kinase still bound, per cent of control: 31%
[11]
  kinase still bound, per cent of control: 100%
[12]
  kinase still bound, per cent of control: 100%
[13]
  kinase still bound, per cent of control: 100%
[14]
  kinase still bound, per cent of control: 100%
[15]
  kinase still bound, per cent of control: 100%
[16]
  kinase still bound, per cent of control: 83%
[17]
  kinase still bound, per cent of control: 68%
[18]
  kinase still bound, per cent of control: 100%
[19]
  kinase still bound, per cent of control: 100%
[20]
  kinase still bound, per cent of control: 95%
[21]
  kinase still bound, per cent of control: 98%
[22]
  kinase still bound, per cent of control: 94%
[23]
  kinase still bound, per cent of control: 88%
[24]
  kinase still bound, per cent of control: 100%
[25]
  kinase still bound, per cent of control: 95%
[26]
  kinase still bound, per cent of control: 95%
[27]
  kinase still bound, per cent of control: 46%
[28]
  kinase still bound, per cent of control: 92%
[29]
  kinase still bound, per cent of control: 100%
[30]
  kinase still bound, per cent of control: 100%
[31]
  kinase still bound, per cent of control: 100%
[32]
  kinase still bound, per cent of control: 100%
[33]
  kinase still bound, per cent of control: 100%
[34]
  kinase still bound, per cent of control: 78%
[35]
  kinase still bound, per cent of control: 39%
[36]
  kinase still bound, per cent of control: 100%
[37]
  kinase still bound, per cent of control: 96%
[38]
  kinase still bound, per cent of control: 88%
[39]
  kinase still bound, per cent of control: 100%
[40]
  kinase still bound, per cent of control: 90%

## O=c1[nH]c2ccccc2n1C1CCN(Cc2ccc(-c3nc4cc5[nH]cnc5cc4nc3-c3ccccc3)cc2)CC1
[1]
  kinase still bound, per cent of control: 100%
[2]
  kinase still bound, per cent of control: 77%
[3]
  kinase still bound, per cent of control: 83%
[4]
  kinase still bound, per cent of control: 100%
[5]
  kinase still bound, per cent of control: 97%
[6]
  kinase still bound, per cent of control: 100%
[7]
  kinase still bound, per cent of control: 95%
[8]
  kinase still bound, per cent of control: 92%
[9]
  kinase still bound, per cent of control: 97%
[10]
  kinase still bound, per cent of control: 100%
[11]
  kinase still bound, per cent of control: 90%
[12]
  kinase still bound, per cent of control: 90%
[13]
  kinase still bound, per cent of control: 100%
[14]
  kinase still bound, per cent of control: 88%
[15]
  kinase still bound, per cent of control: 93%
[16]
  kinase still bound, per cent of control: 64%
[17]
  kinase still bound, per cent of control: 56%
[18]
  kinase still bound, per cent of control: 81%
[19]
  kinase still bound, per cent of control: 87%
[20]
  kinase still bound, per cent of control: 59%
[21]
  kinase still bound, per cent of control: 90%
[22]
  kinase still bound, per cent of control: 99%
[23]
  kinase still bound, per cent of control: 45%
[24]
  kinase still bound, per cent of control: 70%
[25]
  kinase still bound, per cent of control: 100%
[26]
  kinase still bound, per cent of control: 100%
[27]
  kinase still bound, per cent of control: 6.7%
[28]
  kinase still bound, per cent of control: 100%
[29]
  kinase still bound, per cent of control: 97%
[30]
  kinase still bound, per cent of control: 97%
[31]
  kinase still bound, per cent of control: 64%
[32]
  kinase still bound, per cent of control: 100%
[33]
  kinase still bound, per cent of control: 67%
[34]
  kinase still bound, per cent of control: 95%
[35]
  kinase still bound, per cent of control: 15%
[36]
  kinase still bound, per cent of control: 100%
[37]
  kinase still bound, per cent of control: 74%
[38]
  kinase still bound, per cent of control: 86%
[39]
  kinase still bound, per cent of control: 100%
[40]
  kinase still bound, per cent of control: 87%
